Laboratory results published in PMC8333425, “Discovery of a dual Ras and ARF6 inhibitor from a GPCR endocytosis screen” (Nature Communications, 2021).
“And” between values parts separate entries of the source, which are not always exact repeats. Equal values may be shown once. “Also recorded” adds a separate entry of the source.

Legend:
[1] = test system: A549 cells; test: Cell proliferation assay (IncuCyte confluence), A549; format: cell-based, human; conditions: for cell confluence (proliferation) / proliferation (confluence): listed as Rasarfin
Protocol: Cell proliferation was measured by a label-free, non-invasive cellular confluence assay using IncuCyte Live-Cell Imaging Systems (Essen Bioscience, Ann Arbor, MI, USA). MDA-MB-231 breast cancer and A549 lung carcinomas cells (1500 cells in 150 μl/well) were seeded overnight on a clear 96-well plate. Twenty-four hours later, the cells were treated with 0.1% DMSO, or different concentrations of Rasarfin (as indicated), or 10 µM of 21.4 or 21.8 for 96 h total. The plate was placed in an XL-3 incubation chamber maintained at 37 °C and the cells were photographed using a ×4 objective, every 3 h for 4 days. Cell confluence was calculated using IncuCyte S3 software (2019A) and cell proliferation was expressed as an increase in the percentage of confluence. Experiments were done in triplicate and repeated three times.

[2] = test system: ERK1/2 activation by β2AR; test: Western blot of β2AR-mediated ERK1/2 phosphorylation; format: cell-based, human; conditions: for p-ERK1/2 over ERK1/2, normalized to basal (0 min), b2AR: Comp 21 50 μM, individual experiments
Protocol: HEK293SL cells (10^5 cells per well) were seeded in a poly-L-lysine-coated six-well plate and transiently transfected with 3 μg Flag-AT1R, HA-B2R or HA-β2AR and/or 500 ng Flag-MEK1-WT, Flag-MEK1-DD, Flag-BRAF-WT, Flag-BRAF-V600E, Flag-K-Ras-WT, Flag-K-Ras-G12V, HA-ARF6-WT, or HA-ARF6-T27N. Gαq/11 KO and βarr1/2 KO cells were seeded onto 100 mm dishes at a density of 10^6 cells per dish. Next day, cells were transfected with 3 μg AT1R alone or along with 500 ng of β-arrestin2 using PEI. After 18 h of transfection, cells were detached and re-seeded onto poly-L-lysine coated 12-well plates (~1.5–2 × 10^5cells/well) for subsequent experiments. Forty-eight hours post transfection, in a 37 °C water bath, cells were serum-starved for 30 min, pretreated with DMSO (0.1%) or compound 21/Rasarfin (50 µM or at indicated concentrations) for 30 min, then stimulated or not with the indicated ligand [AngII (1 µM), BK (1 µM), Iso (10 µM) or EGF (100 ng/ml)] at indicated times. Cells were put on ice, washed with PBS and solubilized in 2x laemmli buffer (250 mM Tris–HCl pH 6.8, 2% SDS (w/v), 10% glycerol (v/v), 0.01% bromophenol blue (w/v) and 5% β-mercaptoethanol (v/v)) by heating at 65 °C for 15 min. Lysates were resolved on 10 or 14% SDS-PAGE, transferred to nitrocellulose membranes and immunoblotted for p-ERK1/2, ERK1/2, p-Akt, Akt, HA, Myc, β-actin or FLAG. ImageLab 5.2 software was used to quantify the digital blots as fold of the phosphorylated protein over total protein, which were then normalized as indicated in the figure legends. Uncropped immunoblots are provided in the Source Data file.

## CC(C)C(=O)N1CCN(c2ccc(NC(=O)c3cc4ccccc4o3)cc2Cl)CC1 [Compound 21]
[1]; 0.5μM, 18 hr
  cell confluence (proliferation): 9.332 and 9.3043 and 10.3515
  proliferation (confluence): 24.4895 and 24.566 and 18.9209
[1]; 0.5μM, 21 hr
  cell confluence (proliferation): 10.4726 and 10.4517 and 11.0087
  proliferation (confluence): 27.1666 and 26.6886 and 21.2647
[1]; 0.5μM, 24 hr
  cell confluence (proliferation): 10.2389 and 10.6946 and 11.5243
  proliferation (confluence): 32.6256 and 30.048 and 24.569
[1]; 0.5μM, 27 hr
  cell confluence (proliferation): 10.805 and 11.0634 and 12.4799
  proliferation (confluence): 37.2681 and 34.654 and 21.9145
[1]; 0.5μM, 30 hr
  cell confluence (proliferation): 11.9152 and 12.485 and 12.9764
  proliferation (confluence): 41.4109 and 39.7044 and 23.7331
[1]; 0.5μM, 33 hr
  cell confluence (proliferation): 12.3634 and 12.541 and 13.8499
  proliferation (confluence): 46.0502 and 43.4249 and 28.4554
[1]; 0.5μM, 36 hr
  proliferation (confluence): 51.8492 and 49.6782 and 33.7864
[1]; 0.5μM, 39 hr
  proliferation (confluence): 59.4007 and 56.0507
[1]; 1μM, 18 hr
  cell confluence (proliferation): 8.679 and 9.302 and 9.424
  proliferation (confluence): 19.1081 and 18.3715 and 26.7974
[1]; 1μM, 21 hr
  cell confluence (proliferation): 9.1 and 10.4023 and 9.667
  proliferation (confluence): 21.9794 and 20.7173 and 31.1317
[1]; 1μM, 24 hr
  cell confluence (proliferation): 9.619 and 10.4616 and 10.6323
  proliferation (confluence): 24.7962 and 23.1147 and 35.367
[1]; 1μM, 27 hr
  cell confluence (proliferation): 10.2207 and 11.0837 and 11.4063
  proliferation (confluence): 28.2759 and 21.7311 and 40.5461
[1]; 1μM, 30 hr
  cell confluence (proliferation): 12.7027 and 12.0976 and 12.1684
  proliferation (confluence): 31.8721 and 23.9788 and 46.1337
[1]; 1μM, 33 hr
  cell confluence (proliferation): 12.8101 and 12.4309 and 12.7886
  proliferation (confluence): 35.7112 and 29.1451 and 51.7711
[1]; 1μM, 36 hr
  cell confluence (proliferation): 13.5305
  proliferation (confluence): 39.6717 and 33.6517 and 60.1281
[1]; 1μM, 39 hr
  proliferation (confluence): 47.4848 and 40.2179
[1]; 2μM, 18 hr
  cell confluence (proliferation): 9.332 and 13.0386 and 10.4059
  proliferation (confluence): 23.9116 and 20.6158 and 17.6553
[1]; 2μM, 21 hr
  cell confluence (proliferation): 10.4726 and 14.2716 and 10.9627
  proliferation (confluence): 27.3499 and 22.7836 and 20.9361
[1]; 2μM, 24 hr
  cell confluence (proliferation): 10.2389 and 15.0053 and 11.5919
  proliferation (confluence): 32.3505 and 25.0274 and 22.3969
[1]; 2μM, 27 hr
  cell confluence (proliferation): 10.805 and 15.8245 and 11.5779
  proliferation (confluence): 36.576 and 29.0777 and 20.6023
[1]; 2μM, 30 hr
  cell confluence (proliferation): 11.9152 and 18.2698 and 12.1995
  proliferation (confluence): 40.8806 and 32.6797 and 23.0649
[1]; 2μM, 33 hr
  cell confluence (proliferation): 12.3634 and 18.789 and 13.0531
  proliferation (confluence): 45.6439 and 35.4748 and 28.9537
[1]; 2μM, 36 hr
  cell confluence (proliferation): 12.4389 and 19.3831 and 13.6426
  proliferation (confluence): 52.1825 and 39.835 and 32.0484
[1]; 2μM, 39 hr
  proliferation (confluence): 61.5258 and 48.4257 and 38.4343
[1]; 5μM, 18 hr
  cell confluence (proliferation): 10.0859 and 8.906 and 10.6663
  proliferation (confluence): 17.9959 and 26.9316 and 16.8915
[1]; 5μM, 21 hr
  cell confluence (proliferation): 10.2266 and 10.3015 and 11.0904
  proliferation (confluence): 19.5572 and 26.3286 and 18.8493
[1]; 5μM, 24 hr
  cell confluence (proliferation): 11.4115 and 9.856 and 11.3241
  proliferation (confluence): 21.409 and 27.1851 and 17.4154
[1]; 5μM, 27 hr
  cell confluence (proliferation): 11.7245 and 10.4475 and 12.7275
  proliferation (confluence): 22.045 and 28.0966 and 15.1402
[1]; 5μM, 30 hr
  cell confluence (proliferation): 12.7699 and 11.1958 and 12.4012
[1]; 5μM, 33 hr
  cell confluence (proliferation): 12.6309 and 11.193 and 12.7637
  proliferation (confluence): 25.4457 and 25.9951 and 18.0713
[1]; 5μM, 36 hr
  cell confluence (proliferation): 13.1014 and 11.8184 and 13.4133
  proliferation (confluence): 26.9015 and 24.9434 and 20.5372
[1]; 5μM, 39 hr
  proliferation (confluence): 29.6606 and 26.9243 and 22.5988
[1]; 10μM, 18 hr
  cell confluence (proliferation): 8.409 and 7.2062 and 9.084
  proliferation (confluence): 10.5387 and 14.905 and 7.973
[1]; 10μM, 21 hr
  cell confluence (proliferation): 8.837 and 8.143 and 9.362
  proliferation (confluence): 10.701 and 14.8102 and 7.904
[1]; 10μM, 24 hr
  cell confluence (proliferation): 9.479 and 8.1046 and 9.485
  proliferation (confluence): 11.1918 and 15.0497 and 7.616
[1]; 10μM, 27 hr
  cell confluence (proliferation): 9.816 and 8.066 and 10.344
[1]; 10μM, 30 hr
  cell confluence (proliferation): 10.3507 and 8.537 and 10.5983
[1]; 10μM, 33 hr
  cell confluence (proliferation): 10.1924 and 8.993 and 10.9238
[1]; 10μM, 36 hr
  cell confluence (proliferation): 10.249 and 9.152 and 11.0645
[1]; 5 and 10 µM of Rasarfin
  A549 cell growth (confluency): efficiently blocks proliferation; also recorded: efficient A549 cell growth inhibition
[2]; 50 μM
  MAPK response promoted by β2AR: blocked MAPK responses
[2]; time 0 min
  p-ERK1/2 over ERK1/2, normalized to basal (0 min), b2AR: 1
[2]; time 2 min
  p-ERK1/2 over ERK1/2, normalized to basal (0 min), b2AR: 1.344 and 1.8469 and 1.974 and 1.462
[2]; time 5 min
  p-ERK1/2 over ERK1/2, normalized to basal (0 min), b2AR: 1.8675 and 1.745 and 1.249 and 1.487
